These results are taken from patent US5576323A, “Excitatory amino acid receptor antagonists” (Eli Lilly and Company, priority 1994, dated 1996).

The structures appear in SMILES notation.

For the assay, the system named is metabotropic glutamate receptors. Kind of assay: displacement of 1S,3R-ACPD-sensitive [3H]glutamate binding to rat forebrain crude membranes. The conditions noted are these: 100 μM, mixture of enantiomers unless otherwise noted. The method, then:
The binding of [^3 H]glutamate was conducted with crude membranes of rat forebrain as described by Schoepp and True. Schoepp and True, Neuroscience Lett., 145, 100-104 (1992), True and Schoepp, Society for Neuroscience Abstracts, 19, 470 (1993) and Wright, McDonald and Schoepp, J. Neurochem. 63: 938-945, 1994.
With `N[C@@H](CC(Oc1ccccc1)C(=O)O)C(=O)O` (some centres unmarked) [Compound 1, 4-Phenoxyglutamic Acid], the “Percent displacement of L-[3H]Glu” value was 88.0%.
As for `NC(CC(Sc1ccccc1)C(=O)O)C(=O)O` (centres unmarked) [Compound 2, 4-Benzenethioglutamic Acid], the figure is 77.1%; as for `Cc1ccc(OC(C[C@H](N)C(=O)O)C(=O)O)cc1` (some centres unmarked) [Compound 3, 4-(4-Methylphenoxy)glutamic Acid], 82.4%; as for `Cc1ccccc1OC(C[C@H](N)C(=O)O)C(=O)O` (some centres unmarked) [Compound 4, 4-(2-Methylphenoxy)glutamic acid], 66.5%.
To `COc1ccc(OC(C[C@H](N)C(=O)O)C(=O)O)cc1` (some centres unmarked) [Compound 5, 4-(4 Methoxyphenoxy)glutamic Acid] belongs 82.3%.
To `CC(C)c1ccc(OC(C[C@H](N)C(=O)O)C(=O)O)cc1` (some centres unmarked) [Compound 6, 4-(4-(Isopropyl)phenoxy)glutamic Acid] belongs 53.9%; to `N[C@@H](CC(Oc1ccc(C2CCCC2)cc1)C(=O)O)C(=O)O` (some centres unmarked) [Compound 7, 4-(4-Cyclopentylphenoxy)glutamic Acid], 72.0%.
In the case of `CC(C)(C)CC(C)(C)c1ccc(OC(C[C@H](N)C(=O)O)C(=O)O)cc1` (some centres unmarked) [Compound 8, 4-(4-(1,1,3,3-Tetramethylbutyl)phenoxy)glutamic Acid], the “Percent displacement of L-[3H]Glu” value came to 52.3%.
Take `CC(=O)c1ccc(OC(CC(N)C(=O)O)C(=O)O)cc1` (centres unmarked) [Compound 9]: the “Percent displacement of L-[3H]Glu” value amounted to 85.8%.
As for `N[C@@H](CC(Oc1ccc(C(F)(F)F)cc1)C(=O)O)C(=O)O` (some centres unmarked) [Compound 10, 4-(4-Trifluoromethylphenoxy)glutamic Acid], the figure is 77.9%; as for `N[C@@H](CC(Oc1ccc(-c2ccccc2)cc1)C(=O)O)C(=O)O` (some centres unmarked) [Compound 12, 4-(4-Phenylphenoxy)glutamic Acid], 86.7%.
As for `N[C@@H](CC(Oc1cccc(-c2ccccc2)c1)C(=O)O)C(=O)O` (some centres unmarked) [Compound 13, 4-(3-Phenylphenoxy)glutamic Acid], the figure is 81.6%; as for `N[C@@H](CC(Oc1ccc(Cc2ccccc2)cc1)C(=O)O)C(=O)O` (some centres unmarked) [Compound 14, 4-(4-Benzylphenoxy)glutamic Acid], 93.8%; as for `N[C@@H](CC(Oc1ccccc1Cc1ccccc1)C(=O)O)C(=O)O` (some centres unmarked) [Compound 15, 4-(2-Benzylphenoxy)glutamic Acid], 85.9%.
Turning to `N[C@@H](CC(Oc1ccc(CCCCCCc2ccccc2)cc1)C(=O)O)C(=O)O` (some centres unmarked) [Compound 16, 4-(4-(6-Phenylhexyl)phenoxy)glutamic Acid], the “Percent displacement of L-[3H]Glu” value is 76.9%.
As for `N[C@@H](CC(Oc1ccc(CC=Cc2ccccc2)cc1)C(=O)O)C(=O)O` (some centres unmarked) [Compound 17, 4-(4-(3-Phenylprop-2-enyl)phenoxy)glutamic Acid], the “Percent displacement of L-[3H]Glu” value is reported as 75.9%.
With `N[C@@H](CC(Oc1ccc(C=Cc2ccc([N+](=O)[O-])cc2)cc1)C(=O)O)C(=O)O` (some centres unmarked) [Compound 18, 4-(4-(2-(4-Nitrophenyl)ethenyl)phenoxy)glutamic Acid], the “Percent displacement of L-[3H]Glu” value is on record as 92.1%.
As for `N[C@@H](CC(Oc1ccc(Oc2ccccc2)cc1)C(=O)O)C(=O)O` (some centres unmarked) [Compound 19, 4-(4-Phenoxyphenoxy)glutamic Acid], the figure is 84.6%; as for `N[C@@H](CC(Oc1ccc(OCc2ccccc2)cc1)C(=O)O)C(=O)O` (some centres unmarked) [Compound 20, 4-(4-Benzyloxyphenoxy)glutamic Acid], 67.8%.
Consider `N[C@@H](CC(Oc1ccc2ccccc2c1)C(=O)O)C(=O)O` (some centres unmarked) [Compound 21, 4-(2-Naphthyloxy)glutamic Acid], for which the “Percent displacement of L-[3H]Glu” value is on record as 95.9%.
As for `N[C@@H](CC(Oc1ccc2cc(Br)ccc2c1)C(=O)O)C(=O)O` (some centres unmarked) [Compound 22, 4-(6-Bromo-2-naphthyloxy)glutamic Acid], the figure is 93.9%; as for `N[C@@H](CC(Oc1ccc2cc(Br)ccc2c1Br)C(=O)O)C(=O)O` (some centres unmarked) [Compound 23, 4-(1,6-Dibromo-2-naphthyloxy)glutamic Acid], 99.5%; as for `NC(CC(Sc1ccc2ccccc2c1)C(=O)O)C(=O)O` (centres unmarked) [Compound 24, 4-(2-Naphthalenethio)glutamic Acid], 100.6%.
With `N[C@@H](CC(Oc1cccc2ccccc12)C(=O)O)C(=O)O` (some centres unmarked) [Compound 25, 4-(1-Naphthyloxy)glutamic Acid], the “Percent displacement of L-[3H]Glu” value came to 98.5%.
As for `N[C@@H](CC(Oc1cccc2c1CCCC2)C(=O)O)C(=O)O` (some centres unmarked) [Compound 26, 4-(5,6,7,8-Tetrahydro-1-naphthyloxy)glutamic Acid], the figure is 82.1%; as for `CC1(C)CCC(C)(C)c2cc(OC(C[C@H](N)C(=O)O)C(=O)O)ccc21` (some centres unmarked) [Compound 27, 4-(6,7-Dihydro-5,5,8,8-tetramethyl-2-naphthyloxy)glutamic Acid], 66.5%.
Turning to `N[C@@H](CC(Oc1ccc2c(c1)CCC2)C(=O)O)C(=O)O` (some centres unmarked) [Compound 28, 4-(5-Indanyloxy)glutamic Acid], the “Percent displacement of L-[3H]Glu” value worked out at 97.8%.
With `N[C@@H](CC(Oc1ccc2c(c1)OCO2)C(=O)O)C(=O)O` (some centres unmarked) [Compound 29, 4-(3,4-Methylenedioxyphenoxy)glutamic Acid], the “Percent displacement of L-[3H]Glu” value is 89.0%.
`N[C@@H](CC(Oc1ccc2c(c1)Cc1ccccc1-2)C(=O)O)C(=O)O` (some centres unmarked) [Compound 30, 4-(2-Fluorenoxy)glutamic Acid]: the “Percent displacement of L-[3H]Glu” value came out at 93.7%.
As for `N[C@@H](CC(Oc1ccc2oc3ccccc3c2c1)C(=O)O)C(=O)O` (some centres unmarked) [Compound 31, 4-(2-Dibenzofuranoxy)glutamic Acid], the figure is 99.4%; as for `NC(CC(Oc1ccc2oc3c(c2c1)CCCC3)C(=O)O)C(=O)O` (centres unmarked) [Compound 32, 4-(5,6,7,8-Tetrahydro-2-dibenzofuranoxy)glutamic Acid], 92.6%.
As for `Cc1cc2cc(OC(C[C@H](N)C(=O)O)C(=O)O)ccc2o1` (some centres unmarked) [Compound 33, 4-(2-Methyl-5-benzofuranyloxy)glutamic Acid], the figure is 90.1%; as for `N[C@@H](CC(Oc1ccc2sccc2c1)C(=O)O)C(=O)O` (some centres unmarked) [Compound 34, 4-(5-Benzothiophenyloxy)glutamic Acid], 95.3%; as for `NC(CC(Oc1ccc(C(c2ccc(Cl)cc2)c2ccccn2)cc1)C(=O)O)C(=O)O` (centres unmarked) [Compound 35], 92.4%.
On to `NC(CC(Sc1nncn1Cc1ccccc1)C(=O)O)C(=O)O` (centres unmarked) [Compound 36, 4-(4-Benzyl-1,2,4-triazole-3-thio)glutamic Acid], for which the “Percent displacement of L-[3H]Glu” value is 81.3%.
For the compound `N[C@@H](CC(Sc1n[nH]c(C=Cc2ccccc2Cl)n1)C(=O)O)C(=O)O` (some centres unmarked) [Compound 38, 4-(5-((2-Chlorophenyl)ethenyl)-1,2,4-triazole-3-thio)glutamic Acid], the “Percent displacement of L-[3H]Glu” value was determined as 89.9%.
As for `Cc1ccc(O[C@@H](C[C@H](N)C(=O)O)C(=O)O)cc1` [Compound 44, (2S,4S)-4-(4-Methylphenoxy)glutamic Acid], the figure is 103.2%.
To `N[C@@H](C[C@H](Oc1ccc2ccccc2c1)C(=O)O)C(=O)O` [Compound 45, (2S,4S)-4-(2-Naphthyloxy)glutamic Acid] belongs 101.5%; to `N[C@@H](C[C@H](Oc1ccc(-c2ccccc2)cc1)C(=O)O)C(=O)O` [Compound 46, (2S,4S)-4-(4-Phenylphenoxy)glutamic Acid], 85.5%; to `N[C@@H](C[C@H](Oc1ccc2oc3ccccc3c2c1)C(=O)O)C(=O)O` [Compound 47, (2S,4S)-4-(2-Dibenzofuranoxy)glutamic Acid], 107.1%.
Consider `NC(CC(Oc1ccc(/C=C/c2ccccc2)cc1)C(=O)O)C(=O)O` (centres unmarked) [Compound 48, 4-(4-(4-phenylethenyl)phenoxy)glutamic acid], for which the “Percent displacement of L-[3H]Glu” value is reported as 91.9%.
Turning to `N[C@@H](CC(Oc1ccc(CCc2ccccc2)cc1)C(=O)O)C(=O)O` (some centres unmarked) [Compound 49, 4-(4-(2-phenylethyl)phenoxy)glutamic acid], the “Percent displacement of L-[3H]Glu” value was determined as 81.5%.
Take `NC(CC(Oc1ccc(CCCc2ccccc2)cc1)C(=O)O)C(=O)O` (centres unmarked) [Compound 50]: the “Percent displacement of L-[3H]Glu” value is 75.9%.
To `N[C@@H](CC(Oc1ccc(CCCCc2ccccc2)cc1)C(=O)O)C(=O)O` (some centres unmarked) [Compound 51, 4-(4-(4-phenylbutyl)phenoxy)glutamic acid] belongs 81.0%.
